The subject of one data set is mice. The settings on record: mouse, in vivo, po.
For data set [1] the following is noted: in vivo; cited from earlier work.

As to `[C-]#[O+]` [CO, carbon monoxide], in the data set on mice, the behavioral recovery result is on record as “behavior recovered from being incapable of action” and the survival rate entry is “high”. Regarding `O=S([O-])S(=O)[O-].[Na+].[Na+]` [sodium dithionite], in data set [1], the “value indicated for oral toxicity” value was 2500 mg/kg body weight.
